Patent US6579903B2, “Klainetins and their derivatives, method for their preparation and use thereof” (Aventis Pharma Deutschland GmbH, priority 2000, dated 2003)

Legend:
KDR = KDR (Homo sapiens, UniProt P35968); experiment: KDR kinase inhibition, phosphorylation of PLCγ1 peptide substrate; format: biochemical; conditions: purified enzyme, 5 μM ATP, room temperature 1 h
Method: (§1) The cytostatic activities were determined by using purified enzymes in 384-well microtiter plates (coated FlashPlates, NEN Life Science). The enzyme activities were determined by means of phosphorylation of specific peptide substrates. A klainetin dilution series prepared beforehand, with concentrations of 100, 50, 25, 12.5, 6.25, 3.125, 1.5625, 0.7813, 0.3906, 0.195, 0.094, 0.047 and 0 μM, were pipetted into the wells in the appropriate order. The reaction mixture (radiolabeled ATP, buffer solution pH 7.4 and enzyme solutions) was then added followed by incubation at room temperature for 1 h.
Description of KDR reaction mixture:
Kinase buffer: 50 mM MOPS, pH7.4, 10 mM MgCl2, 2 mM DTT, 2.5 mM EGTA, 10 mM β-glycerol phosphate, 1 mM orthovanadate, and 1 mM sodium fluoride
ATP solution: 25 μCi/ml 33P-γ-ATP und 12.5 μM ATP
KDR enzyme solution: 3.5 μg/ml in kinase buffer
Wash solution: PBS (without Mg^2+, Ca^2+)
10 μl diluted klainetin solution
20 μl of enzyme solution (3.5 μg/ml; 70 ng/well)
20 μl of ATP solution (final concentration 0.5 μCi and 5 μM ATP/well)
Incubation at room temperature for 1 h, followed by washing 3× with 75 μl of wash solution and measurement in MicroBeta Counter (Wallac) for 30 sec.
(§2) The activity of the kinases (CDK4 or KDR) was meaured by incorporation of radioactive phosphate from ATP into the substrate and the inhibitory action of the klainetins (IC50) was calculated.

[1] = Stability (characterization); format: physicochemical
[2] = Solubility (characterization); format: physicochemical
Cyclin D1/CDK4 = Cyclin D1/CDK4 (Homo sapiens, UniProt P11802); experiment: CDK4 kinase inhibition, FlashPlate phosphorylation of peptide substrate; format: biochemical; conditions: purified enzyme, 2 μM ATP, room temperature
Method: as §1
Description of CDK4 reaction mixture:
Kinase buffer: 50 mM HEPES, 10 mM MgCl2, 2.5 mM EGTA pH8.0, 10 mM β-glycerol phosphate, 1 mM orthovanadate, 1 mM sodium fluoride, and 1 mM DTT
Biotinylated peptide substrate for FlashPlate coating (1 mg/ml solution in PBS buffer)
ATP solution: 100 μCi/ml 33P-γ-ATP and 10 μM ATP
Cyclin D1/CDK4 enzyme solution: 100 mg/ml in kinase buffer
Wash solution: 3% phosphoric acid
30 μl of diluted klainetin solution, 20 μl of ATP/enzyme solution (final conc. 1 μCi 33P-γ-ATP, 2 μM ATP and 1 μg of enzyme) […]
as §2

CDK2 = CDK2 (Homo sapiens, UniProt P24941); experiment: CDK2 kinase inhibition (IC50); format: biochemical; conditions: purified enzyme

Chain of KDR (P35968 20-1356, species assumed): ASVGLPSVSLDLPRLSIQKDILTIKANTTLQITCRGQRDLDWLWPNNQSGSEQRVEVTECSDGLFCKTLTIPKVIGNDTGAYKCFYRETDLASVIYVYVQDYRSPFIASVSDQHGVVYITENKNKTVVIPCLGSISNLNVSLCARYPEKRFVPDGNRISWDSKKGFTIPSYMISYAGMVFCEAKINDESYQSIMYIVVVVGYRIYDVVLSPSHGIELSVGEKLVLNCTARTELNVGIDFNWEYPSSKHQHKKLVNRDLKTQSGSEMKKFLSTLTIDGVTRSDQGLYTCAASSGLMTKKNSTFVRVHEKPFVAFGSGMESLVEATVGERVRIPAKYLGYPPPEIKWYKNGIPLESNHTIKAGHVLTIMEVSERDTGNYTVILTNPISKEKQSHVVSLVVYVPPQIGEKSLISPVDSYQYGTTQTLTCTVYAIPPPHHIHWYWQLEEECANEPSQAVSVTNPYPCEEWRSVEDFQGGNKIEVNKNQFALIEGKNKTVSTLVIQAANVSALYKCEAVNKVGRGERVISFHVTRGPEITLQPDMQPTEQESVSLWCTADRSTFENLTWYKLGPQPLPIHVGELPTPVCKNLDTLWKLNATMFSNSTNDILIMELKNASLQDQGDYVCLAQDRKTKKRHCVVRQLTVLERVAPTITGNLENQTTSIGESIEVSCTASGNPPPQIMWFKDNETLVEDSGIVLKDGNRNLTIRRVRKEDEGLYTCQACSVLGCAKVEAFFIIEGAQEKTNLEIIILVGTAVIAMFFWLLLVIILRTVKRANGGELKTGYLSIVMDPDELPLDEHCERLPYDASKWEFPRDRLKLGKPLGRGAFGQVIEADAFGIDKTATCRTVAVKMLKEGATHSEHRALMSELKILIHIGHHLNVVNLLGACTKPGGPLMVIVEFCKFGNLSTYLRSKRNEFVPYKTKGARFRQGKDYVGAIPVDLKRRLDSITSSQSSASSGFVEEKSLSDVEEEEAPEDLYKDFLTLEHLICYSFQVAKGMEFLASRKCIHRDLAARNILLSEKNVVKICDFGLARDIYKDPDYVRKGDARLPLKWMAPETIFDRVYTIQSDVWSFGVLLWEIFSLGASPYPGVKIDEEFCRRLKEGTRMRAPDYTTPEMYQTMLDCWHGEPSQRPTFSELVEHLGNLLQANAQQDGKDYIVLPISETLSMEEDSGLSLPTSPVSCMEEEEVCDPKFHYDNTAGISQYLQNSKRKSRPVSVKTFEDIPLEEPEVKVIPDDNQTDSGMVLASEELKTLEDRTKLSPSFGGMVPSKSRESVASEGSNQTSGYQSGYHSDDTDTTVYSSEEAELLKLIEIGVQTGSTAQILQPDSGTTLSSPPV
Chain of Cyclin D1/CDK4 (P11802 whole entry, species assumed): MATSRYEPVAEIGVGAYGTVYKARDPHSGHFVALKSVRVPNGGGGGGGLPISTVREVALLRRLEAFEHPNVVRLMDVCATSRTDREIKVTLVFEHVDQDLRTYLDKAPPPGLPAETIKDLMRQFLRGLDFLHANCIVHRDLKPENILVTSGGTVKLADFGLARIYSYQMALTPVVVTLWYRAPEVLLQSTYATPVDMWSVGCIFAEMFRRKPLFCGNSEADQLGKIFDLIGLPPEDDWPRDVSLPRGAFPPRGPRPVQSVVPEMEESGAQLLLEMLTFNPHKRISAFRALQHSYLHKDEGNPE
Chain of Cyclin D1/CDK4 (P24385 whole entry partner, species assumed): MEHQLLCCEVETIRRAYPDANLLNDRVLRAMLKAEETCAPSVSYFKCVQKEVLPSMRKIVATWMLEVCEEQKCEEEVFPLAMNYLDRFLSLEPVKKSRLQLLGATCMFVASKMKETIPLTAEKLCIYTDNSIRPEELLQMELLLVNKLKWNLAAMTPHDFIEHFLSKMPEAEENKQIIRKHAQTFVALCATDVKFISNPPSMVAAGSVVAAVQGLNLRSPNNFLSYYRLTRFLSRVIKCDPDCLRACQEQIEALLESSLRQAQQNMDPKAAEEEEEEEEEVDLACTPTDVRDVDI

| Structure (SMILES) | IC50 (KDR) [µM] | stability in the alkaline and strongly acidic range ([1]; alkaline and strongly acidic range) | stability in a neutral and mildly acidic environment [1] | solubility in polar organic solvents [2] | solubility in water [2] | IC50 (Cyclin D1/CDK4) [µM] | IC50 (CDK2) [µM] | stability in the alkaline range ([1]; alkaline range) |
| --- | --- | --- | --- | --- | --- | --- | --- | --- |
| COc1c(Cc2cccc(O)c2O)c(O)cc2c1C(=O)CC(c1ccccc1)O2 (centres unmarked) [Klainetin A, klainetin A] | 6.96 | unstable | stable | soluble | only slightly soluble | 2.09 | 21.5 |  |
| COc1cc(O)c(Cc2cccc(O)c2O)c(O)c1C(=O)/C=C/c1ccccc1 [Klainetin B, klainetin B] | 6.48 |  | stable | soluble | only slightly soluble | 1.14 | 6.04 | unstable |
